A short description of series [1]: Sedative effect: Irwin test (passivity and ataxia). Type of series: in vivo. The conditions noted are these: rats, i.p., 1, 2 and 3 hours after treatment. As for the experimental part:
Pas.: Passivity, sedation, prostration. Quantitative evaluation between 0 and 3. They were performed 1, 2 and 3 hours after the treatment.
Atax.: Ataxia, the alterations in coordination in locomotion were evaluated. They were evaluated between 0 and 3. They were performed 1, 2 and 3 hours after the treatment.

For series [2], the system named is death induced by compound 48/80. Description: "In vivo" antihistaminic activity: protection from death induced by 48/80 in the rat. The conditions noted are these: ip, i.p. 60 min before 48/80 (0.5 mg/kg, i.v.), survival 4 h after, read-out: ED-50, protection from death induced by 48/80. As for the experimental part:
The antihistaminic activity was studied by determining the protection in the face of the mortality induced by the product 48/80 in the rat. This test was realized in accordance with the technique described by C. J. E. Niemegeers and cols. (Arch, int. Pharmacodyn. 234, 164-176 (1978).
The products according to the present invention are administered i.p. to rats. After 60 minutes the compound 48/80 is administered (0.5 mg/kg, i.v.). The protective activity is defined as the survival of the rats 4 hours after the i.v. injection of 48/80.
The activity of the products at several doses in order to determine the dose capable of protecting 50% of the animals (ED-50) was studied.

In series [3] the test system is sleep time induced by pentobarbital. Description: Sedative effect: potentiation of the sleep time induced by pentobarbital. The following applies: for Potentiation of sleep time (in words): orally; for Potentiation of sleep time: 1 h before sodium pentobarbital (35 mg/kg, s.c.).
Experimental: Study of the potentiation of the sleep time due to pentobarbital was carried out by following the method described by L. E. Allen and cols. […] The products studied were administered orally. […] The sleep time was compared with a group of control animals, treated only with sodium pentobarbital.

For the compound `CN(C)CCOC(c1ccccc1)c1ccccc1` [Difenhidramine, reference compound], in series [1] (40 mg/kg), the “Atax. (ataxia; score 0 to 3)” value was 0.9 and the “Pas. (passivity, sedation, prostration; score 0 to 3)” value was 0. Further, the ED50 in series [2] was found to be 0.84 mg/kg. Also, the “Potentiation of sleep time (in words)” value in series [3] (20 mg/kg) is given as “potentiates significantly the sleep time”.

For `CCOCCn1c(CN2CCN(CCCCn3cc(Br)cn3)CC2)nc2ccccc21` [Example 1, 1-(2-Ethoxyethyl)-2-4-[4--(4-bromopyrazol-1-yl)butyl]piperazin-1-ylmethyl benzimidazole], in series [1] (80 mg/kg), the “Atax. (ataxia; score 0 to 3)” value turned out to be 1.3 and the “Pas. (passivity, sedation, prostration; score 0 to 3)” value amounted to 1.4. For the same compound, the ED50 in series [2] turned out to be 0.09 mg/kg.

On to `CCOCCn1c(N2CCN(CCCCn3cc(Br)cn3)CC2)nc2ccccc21` [Example 2, 1-(2-Ethoxyethyl)-2-4-[4-(4-bromopyrazol1yl)butyl]piperazinyl benzimidazole], for which the figures for the “Atax. (ataxia; score 0 to 3)” value in series [1] (40 mg/kg) and in series [1] (80 mg/kg) were 0.4 and 1.3, respectively. Also, the results for the “Pas. (passivity, sedation, prostration; score 0 to 3)” value in series [1] (40 mg/kg) and in series [1] (80 mg/kg) were 0 and 0.7, respectively. Further, in series [2], the ED50 came to 2.7 mg/kg.

Regarding `CCOCCn1c(CN2CCN(CCCCn3ccnc3)CC2)nc2ccccc21` [Example 3, 1-(2-Ethoxyethyl)-2-4-[4-(imidazol-1-yl)butyl]piperazin-1-ylmethyl benzimidazole], in series [1] (80 mg/kg), the “Atax. (ataxia; score 0 to 3)” value is on record as 0 and the “Pas. (passivity, sedation, prostration; score 0 to 3)” value is recorded as 0. Moreover, in series [2], the ED50 is 0.13 mg/kg.

In the case of `CCOCCn1c(CN2CCN(CCCCn3cncn3)CC2)nc2ccccc21` [Example 4, 1-(2-Ethoxyethyl)-2-4-[4-(1,2,4-triazol-1-yl)butyl]piperazin-1-ylmethyl benzimidazole], in series [1] (80 mg/kg), the “Atax. (ataxia; score 0 to 3)” value amounted to 0.5 and the “Pas. (passivity, sedation, prostration; score 0 to 3)” value was 0.4. Also, in series [2], the ED50 was 0.036 mg/kg.

Consider `CCOCCn1c(CN2CCN(CCCCn3cc(S(=O)(=O)O)cn3)CC2)nc2ccccc21` [Example 5, 1-(2-Ethoxyethyl)-2-4-[4-(4-sulfopyrazol-1-yl)butyl]piperazin-1-ylmethyl benzimidazole], for which, in series [1] (80 mg/kg), the “Atax. (ataxia; score 0 to 3)” value is given as 0.4 and the “Pas. (passivity, sedation, prostration; score 0 to 3)” value was found to be 0.4. The ED50 in series [2] turned out to be 2.6 mg/kg.

In the case of `CCOCCn1c(CN2CCN(CCCCn3cc(C(=O)O)cn3)CC2)nc2ccccc21` [Example 6, 1-(2-Ethoxyethyl)-2-4-[4-(4-carboxypyrazol-1-yl)butyl]piperazin-1-ylmethylbenzimidazole], in series [1] (80 mg/kg), the “Atax. (ataxia; score 0 to 3)” value is recorded as 0 and the “Pas. (passivity, sedation, prostration; score 0 to 3)” value is 0. Besides, the ED50 in series [2] was 0.064 mg/kg.

Take `CCOCCn1c(CN2CCN(CCCCn3cccn3)CC2)nc2ccccc21` [Example 7, 1-(2-Ethoxyethyl)-2-4-[4-(pyrazol-1-yl)butyl]piperazin-1-ylmethyl benzimidazole]: the “Atax. (ataxia; score 0 to 3)” value came to 0 in series [1] (80 mg/kg) and 0.3 in series [1] (160 mg/kg). The “Pas. (passivity, sedation, prostration; score 0 to 3)” value in series [1] (80 mg/kg) and in series [1] (160 mg/kg) was 0 in each case. Also, the ED50 in series [2] is 0.02 mg/kg. Further, the “Potentiation of sleep time” value in series [3] (80 mg/kg orally) was 10%; in series [3] (160 mg/kg orally) it was 11%; in series [3] (320 mg/kg orally), 22%. The “Potentiation of sleep time (in words)” value in series [3] (320 mg/kg, maximum dose tested) is “does not potentiate the sleep time”.

As to `CCOCCn1c(CN2CCN(CCCCn3cccc3)CC2)nc2ccccc21` [Example 8, 1-(2-Ethoxyethyl)-2-4-[4-(pyrrol-1-yl)butyl]piperazin-1-yl-methyl benzimidazole], in series [1] (80 mg/kg), the “Atax. (ataxia; score 0 to 3)” value stood at 0 and the “Pas. (passivity, sedation, prostration; score 0 to 3)” value is recorded as 0. Moreover, the ED50 in series [2] amounted to 0.02 mg/kg.

Turning to `CCOCCn1c(N2CCN(CCCCn3cc(C(=O)O)cn3)CC2)nc2ccccc21` [Example 9, 1-(2-Ethoxyethyl)-2-4-[4-(4-carboxypryazol-1-yl)butyl]piperazine-1-yl benzimidazole], in series [1] (80 mg/kg), the “Atax. (ataxia; score 0 to 3)” value is reported as 0 and the “Pas. (passivity, sedation, prostration; score 0 to 3)” value was determined as 0. Besides, in series [2], the ED50 was 0.84 mg/kg.

As to `CCOCCn1c(CN2CCN(CCCCn3cnc(Cl)c3Cl)CC2)nc2ccccc21` [Example 10], the ED50 in series [2] was found to be 0.66 mg/kg.

Values taken from US5182280A, “Derivatives of benzimidazole and their use as antihistamines” (Laboratorios Del Dr. Esteve, S. A., priority 1990, dated 1993).
